Measured values as given in patent US20130216498A1, “IMIDAZOPYRIDINE DERIVATIVES AS JAK INHIBITORS” (priority 2009, published 2013).

Key:
Assay type in all cases: biochemical
[1] = biological target: T1, human JAK3 (aa 795-1124) catalytic domain (Homo sapiens, UniProt P52333); assay: In vitro JAK kinase assay (TR-FRET), JAK3; settings: GST-fusion catalytic domain; ATP 0.6 μM; poly (GT)-Biotin 140 nM; 30 minutes at room temperature
T1 construct: JAK3 (aa 795-1124); GST (N); purchased Carna Biosciences; host or cells: baculovirus expression system
T1 sequence (P52333 795-1124): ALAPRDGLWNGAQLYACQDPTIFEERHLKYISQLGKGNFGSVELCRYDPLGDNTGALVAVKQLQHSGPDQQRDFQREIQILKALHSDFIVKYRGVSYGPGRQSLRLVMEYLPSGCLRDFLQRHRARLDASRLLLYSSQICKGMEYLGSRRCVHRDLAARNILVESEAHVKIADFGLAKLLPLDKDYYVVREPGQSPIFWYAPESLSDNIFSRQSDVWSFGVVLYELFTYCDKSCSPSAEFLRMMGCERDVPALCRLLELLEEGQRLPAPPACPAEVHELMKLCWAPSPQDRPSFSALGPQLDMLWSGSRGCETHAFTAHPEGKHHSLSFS
Method: (§1) Compounds were screened for their ability to inhibit JAK1, JAK2 and JAK3 using the assays as indicated below.
(§2) The catalytic domains of human JAK1 (aa 850-1154), JAK2 (aa 826-1132), JAK3 (aa 795-1124) and Tyk2 (aa 871-1187) were expressed as N-terminal GST-fusion proteins using a baculovirus expression system and were purchased from Carna Biosciences. The enzymatic activity was assayed using as substrate a biotinylated peptide, poly (GT)-Biotin (CisBio). The peptide concentration in the reactions was 60 nM for JAK1, 20 nM for JAK2, 140 nM for JAK3 and 50 nM for Tyk2. The degree of phosphorylation was detected by TR-FRET (time-resolved fluorescence energy transfer).
(§3) IC50s of compounds were measured for each kinase in a reaction mixture containing the enzyme, ATP and the peptide in 8 mM MOPS (pH 7.0), 10 mM MgCl2, 0.05% β-mercaptoethanol, 0.45 mg/mL BSA. The ATP concentration in the reactions was 3 μM for JAK1, 0.2 μM for JAK2, 0.6 μM for JAK3 and 1.8 μM for Tyk2. The enzymatic reactions took place for 30 minutes at room temperature. Then, the reactions were stopped with 20 μL of quench detection buffer (50 mM HEPES, 0.5 M KF, EDTA 0.25 M, 0.1% (w/v) BSA, pH 7.5) containing 0.115 μg/mL of anti-phosphoTyr (PT66)-Cryptate (CisBio) and a variable concentration of SA-XL665 (CisBio) to keep the SA-B ratio constant. Incubate for 3 h and read on Victor 2V spectrofluorometer (PerkinElmer) set to read fluorescence resonance energy transfer.

[2] = biological target: T2, human JAK1 (aa 850-1154) catalytic domain (Homo sapiens, UniProt P23458); assay: In vitro JAK kinase assay (TR-FRET), JAK1; settings: GST-fusion catalytic domain; ATP 3 μM; poly (GT)-Biotin 60 nM; 30 minutes at room temperature
T2 construct: human JAK1 (aa 850-1154); GST (N); purchased Carna Biosciences; host or cells: baculovirus expression system
T2 sequence (P23458 850-1154): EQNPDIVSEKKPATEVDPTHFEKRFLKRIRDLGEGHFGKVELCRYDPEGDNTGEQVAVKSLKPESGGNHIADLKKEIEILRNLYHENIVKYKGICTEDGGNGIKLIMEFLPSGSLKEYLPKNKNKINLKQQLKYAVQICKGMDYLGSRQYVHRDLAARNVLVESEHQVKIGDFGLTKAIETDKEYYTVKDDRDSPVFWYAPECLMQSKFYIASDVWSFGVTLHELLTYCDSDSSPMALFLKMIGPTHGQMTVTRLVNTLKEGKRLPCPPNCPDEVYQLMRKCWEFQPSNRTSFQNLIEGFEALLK
Method: as §1, §2, §3

[3] = biological target: T3, human JAK2 (aa 826-1132) catalytic domain (Homo sapiens, UniProt O60674); assay: In vitro JAK kinase assay (TR-FRET), JAK2; settings: GST-fusion catalytic domain; ATP 0.2 μM; poly (GT)-Biotin 20 nM; 30 minutes at room temperature
T3 construct: JAK2 (aa 826-1132); GST (N); purchased Carna Biosciences; host or cells: baculovirus expression system
T3 sequence (O60674 826-1132): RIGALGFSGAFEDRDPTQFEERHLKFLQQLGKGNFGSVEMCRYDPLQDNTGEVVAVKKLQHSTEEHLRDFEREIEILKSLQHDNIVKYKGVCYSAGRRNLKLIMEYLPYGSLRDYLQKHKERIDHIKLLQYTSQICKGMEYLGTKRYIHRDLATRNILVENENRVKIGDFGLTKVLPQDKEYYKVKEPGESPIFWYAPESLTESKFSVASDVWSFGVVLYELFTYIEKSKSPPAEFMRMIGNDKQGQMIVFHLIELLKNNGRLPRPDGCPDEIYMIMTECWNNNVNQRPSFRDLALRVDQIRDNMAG
Method: as §1, §2, §3

## C[C@@H](c1ccc(F)cn1)N(C)c1nc(-c2cnc3ccc(F)cn23)ncc1C(=O)O [Example 145, (S)-2-(6-Fluoroimidazo[1,2-a]pyridin-3-yl)-4-((1-(5-fluoropyridin-2-yl)ethyl)(methyl)amino)pyrimidine-5-carboxylic acid]
[1]
  IC50: 100 to 1000 nM
[2]
  IC50: 100 to 1000 nM
[3]
  IC50: < 100 nM

## CCC[C@H](Nc1nc(-c2cnc3ccc(F)cn23)ncc1C(N)=O)c1ccc(F)cc1 [Example 151, (S)-2-(6-Fluoroimidazo[1,2-a]pyridin-3-yl)-4-(1-(4-fluorophenyl)butylamino) pyrimidine-5-carboxamide]
[1]
  IC50: < 100 nM
[2]
  IC50: 100 to 1000 nM
[3]
  IC50: < 100 nM

## N#CC[C@H]1CC[C@H](Nc2nc(-c3cnc4ccc(F)cn34)ncc2C(N)=O)CC1 [Example 153, 4-((1r,4r)-4-(Cyanomethyl)cyclohexylamino)-2-(6-fluoroimidazo[1,2-a]pyridin-3-yl)pyrimidine-5-carboxamide]
[1]
  IC50: < 100 nM
[2]
  IC50: > 1000 nM
[3]
  IC50: < 100 nM

## CS(=O)(=O)c1cnc(-c2cnc3ccc(F)cn23)nc1N[C@@H]1CCCN(C(=O)CC#N)C1 [Example 159, (R)-3-(3-(2-(6-Fluoroimidazo[1,2-a]pyridin-3-yl)-5-(methylsulfonyl)pyrimidin-4-ylamino)piperidin-1-yl)-3-oxopropanenitrile]
[1]
  IC50: 100 to 1000 nM
[2]
  IC50: > 1000 nM
[3]
  IC50: < 100 nM

## COc1cnc(-c2cnc3ccc(F)cn23)nc1N[C@@H]1CCCN(C(=O)CC#N)C1 [Example 163, (R)-3-(3-(2-(6-Fluoroimidazo[1,2-a]pyridin-3-yl)-5-methoxypyrimidin-4-ylamino)piperidin-1-yl)-3-oxopropanenitrile]
[1]
  IC50: < 100 nM
[2]
  IC50: 100 to 1000 nM
[3]
  IC50: < 100 nM

## N#CCC(=O)N1CCC[C@@H](Nc2cc(-n3cncn3)nc(-c3cnc4ccc(F)cn34)n2)C1 [Example 164, (R)-3-(3-(2-(6-Fluoroimidazo[1,2-a]pyridin-3-yl)-6-(M−1,2,4-triazol-1-yl)pyrimidin-4-ylamino)piperidin-1-yl)-3-oxopropanenitrile]
[1]
  IC50: < 100 nM
[2]
  IC50: 100 to 1000 nM
[3]
  IC50: < 100 nM

## N#CCC(=O)N1CCC[C@@H](Nc2cc(N3CCNCC3)nc(-c3cnc4ccc(F)cn34)n2)C1 [Example 166, (R)-3-(3-(2-(6-Fluoroimidazo[1,2-a]pyridin-3-yl)-6-(piperazin-1-yl)pyrimidin-4-ylamino)piperidin-1-yl)-3-oxopropanenitrile]
[1]
  IC50: < 100 nM
[2]
  IC50: 100 to 1000 nM
[3]
  IC50: < 100 nM

## N#CCC(=O)N1CCC[C@@H](Nc2cc(N3CCC[C@H]3C(=O)O)nc(-c3cnc4ccc(F)cn34)n2)C1 [Example 172]
[1]
  IC50: 100 to 1000 nM
[2]
  IC50: 100 to 1000 nM
[3]
  IC50: < 100 nM

## N#CCC(=O)N1CCC[C@@H](Nc2cc(OCCN3CCOCC3)nc(-c3cnc4ccc(F)cn34)n2)C1 [Example 175, (R)-3-(3-(2-(6-Fluoroimidazo[1,2-a]pyridin-3-yl)-6-(2-morpholinoethoxy)pyrimidin-4-ylamino)piperidin-1-yl)-3-oxopropanenitrile]
[1]
  IC50: < 100 nM
[2]
  IC50: < 100 nM
[3]
  IC50: < 100 nM

## N#CCC(=O)N1CCC[C@@H](Nc2cc(C(=O)O)nc(-c3cnc4ccc(F)cn34)n2)C1 [Example 181, (R)-6-(1-(2-Cyanoacetyl)piperidin-3-ylamino)-2-(6-fluoroimidazo[1,2-a]pyridin-3-yl)pyrimidine-4-carboxylic acid]
[1]
  IC50: 100 to 1000 nM
[2]
  IC50: 100 to 1000 nM
[3]
  IC50: < 100 nM

## N#CCC(=O)N1CCC[C@@H](Nc2cc(N)nc(-c3cnc4ccc(F)cn34)n2)C1 [Example 183, (R)-3-(3-(6-Amino-2-(6-fluoroimidazo[1,2-a]pyridin-3-yl)pyrimidin-4-ylamino)piperidin-1-yl)-3-oxopropanenitrile]
[1]
  IC50: < 100 nM
[2]
  IC50: < 100 nM
[3]
  IC50: < 100 nM

## O=C([C@H](O)CO)N1CCC[C@@H](Nc2nc(-c3cnc4ccc(F)cn34)nc(N3CCOCC3)c2F)C1 [Example 185, (R)-1-((R)-3-(5-Fluoro-2-(6-fluoroimidazo[1,2-a]pyridin-3-yl)-6-morpholinopyrimidin-4-ylamino)piperidin-1-yl)-2,3-dihydroxypropan-1-one]
[1]
  IC50: 100 to 1000 nM
[2]
  IC50: 100 to 1000 nM
[3]
  IC50: < 100 nM
